The text below walks through data of patent US10532065B2, “Bisphosphonic acid derivative and application for same” (NAGASAKI UNIVERSITY, priority 2014, dated 2020).

Like-named read-outs stand apart in the source and are kept apart here. Where only a bound is given, the exact number is not on record here.

What all share (type): cell-based
In one experiment the test system is TFK-1 cells / γδ T cells. The experiment in a line: TNF-α production from γδ T cells stimulated by compound-pretreated TFK-1 cells. To be noted: TFK-1, Cholangiocarcinoma, 4 hr pretreatment, 16 hr with γδ T cells, read-out: TNF-α50. The method, then:
(§1) Since the above-mentioned results of Experimental Example confirm that the activity of bisphosphonic acids becomes high by POM esterification in various tumor cells, the TNF-α production induction ability of more number of tumor cells was quantitatively studied. […] Thereto was added a solution (500 μl) of compound 7 obtained by serially diluting 10 mM stock solution 10-fold from 20 μM, or a solution (500 μl) of compound 14 obtained by serially diluting 10 mM stock solution 10-fold from 200 μM, and the cells were suspended well. These conical tubes were stood at 37° C. for 4 hr, and the cells were washed 3 times with 5 ml of culture medium. To these cells was added 500 μl of medium, and the cells were suspended well. […] The cell culture medium was suspended well, and the plate was centrifuged at 1,700 rpm, 4° C. for 2 min and the culture supernatant (150 μl) was taken and placed in another round-bottomed 96 well plate. The plate was frozen at −80° C. overnight, left standing at room temperature for 1 hr, stirred well and 100 μl thereof was subjected to ELISA of TNF-α. The content of TNF-α was calculated from the analytical curve of TNF-α. These were performed in triplicate, and TNF-α50 of bisphosphonic acid POM ester derivative (compound 7) and bisphosphonic acid (compound 14) was calculated and summarized in Table 8.

In a further experiment the test system is G-361 cells / γδ T cells. Description: TNF-α production from γδ T cells stimulated by compound-pretreated G-361 cells. To be noted: G-361, Melanoma, 4 hr pretreatment, 16 hr with γδ T cells, read-out: TNF-α50. The procedure:
as §1

The next experiment deals with THP-1 cells. The experiment in a line: THP-1 tumor cell growth inhibition (CellTiterGlo). To be noted: THP-1, Acute monocytic leukemia, 4 days culture.
In a further experiment the test system is MRK-nu-1 cells. The experiment in a line: MRK-nu-1 tumor cell growth inhibition (CellTiterGlo). To be noted: MRK-nu-1, Mammary carcinoma, 4 days culture.
In experiment [1] the test system is YMB-1-E cells / γδ T cells. Description: TNF-α production from γδ T cells stimulated by compound-pretreated YMB-1-E cells. To be noted: Mammary carcinoma, 4 hr pretreatment, 16 hr with γδ T cells, read-out: TNF-α50. The procedure:
as §1

For a further experiment, the system named is Raji cells / γδ T cells. The experiment in a line: TNF-α production from γδ T cells stimulated by compound-pretreated Raji cells. To be noted: Burkitt's lymphoma, 4 hr pretreatment, 16 hr with γδ T cells, read-out: TNF-α50. The procedure: as §1
Another experiment relates to EJ-1 cells. The experiment in a line: EJ-1 cell growth inhibition (direct antitumor action, CellTiterGlo). To be noted: for IC50: EJ-1 (bladder cancer) growth inhibition, 4 days culture. The gist of the method:
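EJ-1 cells run as in the earlier U937 protocol, with cells recovered by conventional EDTA-trypsin treatment. POM ester derivatives were tested side by side with the parent bisphosphonic acids for direct growth inhibition, read by CellTiterGlo.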

Protocol for MRK-nu-1 cells: First, EJ-1, 786-0, MKN1, OST, PC-3, PK-1, LK-2, G-361, TFK-1, MRK-nu-1 were cultured in RPMI1640 medium supplemented with 10% calf serum at 37° C. under 5% CO2 atmosphere while maintaining log phase. The cells were recovered by a conventional EDTA trypsin treatment, and centrifuged at 1,700 rpm, 4° C. for 5 min. The supernatant was removed, and suspended in RPMI1640 medium supplemented with 10% calf serum to 500 cells/50 μl. On the other hand, 10 mM stock solution of compound 7 which is a bisphosphonic acid POM ester derivative was serially diluted 2-fold from 200 pM. In addition, 10 mM stock solution of compound 14 which is bisphosphonic acid was serially diluted 2-fold from 2 mM. Then, the cell suspension (50 μl, 500 cells) and the compound solution (50 μl) were added to a flat-bottomed 96 well plate and cultured at 37° C. under 5% CO2 atmosphere for 4 days. Then, 100 μl of CellTiterGlo solution was added, and the mixture was pipetted 10 strokes, and transferred to a 96 well OptiPlate. After standing at room temperature for 10 min, the luminescence was measured by a luminometer and IC50 value was calculated.
Protocol for THP-1 cells: To quantitatively study an action of compound 7, which is a bisphosphonic acid POM ester derivative, on various hematologic tumor-derived lymphoma and myeloidic leukemia cells, the concentration of a compound that inhibits cell proliferation to half was calculated as IC50, and a direct antitumor effect was studied from the value thereof. […] First, MOLT-4, THP-1, SCC-3, PEER, RAMOS-RA1, C1R, MOLT-3, Raji, U937, K562, Daudi were cultured in RPMI1640 medium supplemented with 10% calf serum at 37° C. under 5% CO2 atmosphere while maintaining log phase. The cells were recovered, and centrifuged at 1,700 rpm, 4° C. for 5 min. The supernatant was removed, and suspended in RPMI1640 medium supplemented with 10% calf serum to 500 cells/50 μl. On the other hand, 10 mM stock solution of compound 7 which is a bisphosphonic acid POM ester derivative was serially diluted 2-fold from 200 μM. In addition, 10 mM stock solution of compound 14 which is bisphosphonic acid was serially diluted 2-fold from 2 mM. Then, the cell suspension (50 μl, 500 cells) and the compound solution (50 μl) were added to a flat-bottomed 96 well plate and cultured at 37° C. under 5% CO2 atmosphere for 4 days. Then, 100 μl of CellTiterGlo solution was added, and the mixture was pipetted 10 strokes, and transferred to a 96 well OptiPlate. […]

On to `CC(C)(C)C(=O)OCOP(=O)(OCOC(=O)C(C)(C)C)C(CNc1nccs1)P(=O)(OCOC(=O)C(C)(C)C)OCOC(=O)C(C)(C)C` [Compound 7, tetrakispivaloyloxymethyl 2-(thiazol-2-ylamino) ethylidene-1,1-bisphosphonate], for which the EC50 with TFK-1 cells / γδ T cells came to 66 nM; with G-361 cells / γδ T cells, 63 nM; in experiment [1], 630 nM; in the experiment on Raji cells / γδ T cells it was 53 nM. Moreover, the IC50 with THP-1 cells was determined as 35 nM; with MRK-nu-1 cells, 740 nM; in the experiment with EJ-1 cells, 26 nM. The “direct antitumor activity (in words)” value with EJ-1 cells (EJ-1 growth inhibition) is given as “particularly high activity”.

With `O=P(O)(O)C(CNc1nccs1)P(=O)(O)O` [Compound 14, 2-(thiazol-2-ylamino)ethylidene-1,1-bisphosphonic Acid, reference compound], the EC50 is greater than 100000 nM with TFK-1 cells / γδ T cells (T-cell), 5100 nM in the experiment with G-361 cells / γδ T cells (Homo sapiens), greater than 100000 nM in experiment [1] (Homo sapiens) and greater than 100000 nM in the experiment with Raji cells / γδ T cells (Homo sapiens). The IC50 was determined as 130000 nM in the experiment with THP-1 cells (Homo sapiens, 96 h); 210000 nM with MRK-nu-1 cells (Homo sapiens, 96 h); 3700 nM in the experiment with EJ-1 cells (EJ1, 96 h).
